Assay results reported in patent US7803992B2, “Methods and compositions for expressing an herbicide-tolerant polynucleotide” (Pioneer Hi-Bred International, Inc., priority 2005, dated 2010).

How the values were obtained:
[1] = test system: parent elite stiff stalk inbred corn; assay: Preemergence herbicide application in greenhouse: fresh shoot weight and visual injury; type: in vivo; conditions: for pest or weed control at 200 g/ha: Zea mays, pre-emergence, 672 h, read-out: % Visual Injury; for Fresh Weight: fresh shoots weighed 4 weeks after treatment, untreated 36.7 g
[2] = test system: Heterozygous GAT-HRA corn; assay: as above; type: in vivo; conditions: for pest or weed control at 200 g/ha: Zea mays, pre-emergence, 672 h, read-out: % Visual Injury; for Fresh Weight: fresh shoots weighed 4 weeks after treatment, untreated 47.0 g
[3] = test system: parent elite stiff stalk inbred corn; assay: Postemergence herbicide application in greenhouse: fresh shoot weight and visual injury; type: in vivo; conditions: for pest or weed control at 200 g/ha: Zea mays, post-emergence, read-out: % Visual Injury; for Fresh Weight: weighed 2 weeks after treatment, untreated 76.4 g
[4] = test system: Heterozygous GAT-HRA corn; assay: as above; type: in vivo; conditions: for pest or weed control at 200 g/ha: Zea mays, post-emergence, read-out: % Visual Injury; for Fresh Weight: weighed 2 weeks after treatment, untreated 98.8 g
[5] = test system: GAT-HRA soybeans; assay: Postemergence herbicide treatment of soybeans in greenhouse, visual injury; type: in vivo, soybean; conditions: postemergence, glyphosate 8960, tribenuron-methyl 35, rimsulfuron 35 g/ha
Procedure: (§1) Young regenerated transgenic plants were sprayed with 1× glyphosate (1× rate of glyphosate is 1120 g/ha of glyphosate isopropylamine) to cull segregants. Four replications were performed for each treatment. Plants were then treated with various herbicides, including glyphosate and ALS-inhibitor herbicides.
(§2) Six soybean seeds from each variety to be assayed were planted 1 cm deep in 5.5 (13.97 cm) inch square plastic container of a synthetic growth medium. […] When possible, containers were thinned to two uniform plants. Non-transgenic lines were thinned to two uniform plants per container.
(§3) Results are expressed below in Table 11 as the mean of four replications.

[6] = test system: Wild Type soybeans (Jack); assay: as above; type: in vivo, soybean; conditions: postemergence, glyphosate 8960, tribenuron-methyl 35, rimsulfuron 35 g/ha
Procedure: as §1, §2, §3

[7] = test system: STS ® soybeans; assay: as above; type: in vivo, soybean
Description: When possible, containers were thinned to two uniform plants.

[8] = test system: Untransformed Coker 312 cotton; assay: Greenhouse over the top herbicide spray of cotton; type: in vivo, Gossypium hirsutum; conditions: glyphosate 1.5 lb ae/acre, 2 weeks after application; rimsulfuron 16 g active ingredient/hectare without glyphosate
Description: Transformed cotton plants were rooted and then transferred to soil for further growth. Plants were then subjected to herbicide spray treatments in a greenhouse. […] Untransformed Coker 312 control plants were dead 2 weeks after glyphosate application. […] Plants transformed with both GAT and HRA were further subjected to an “over the top” application of the sulfonylurea herbicide rimsulfuron at a rate of 16 g active ingredient/hectare. […] In further experiments 32 g ai/ha rimsulfuron were applied to the cotton.

[9] = test system: GAT-HRA maize; assay: Evaluation of herbicide tolerance, spray at V2 stage, injury symptoms after 10-14 days; type: in vivo; conditions: postemergence; tribenuron (Express) 200, chlorimuron (Classic) 200, imazapyr (Arsenal) 200, metsulfuron-methyl (Ally) 35 g ai/ha
Procedure: GAT-HRA maize plants were evaluated for tolerance to glyphosate and other herbicides. One protocol used in this evaluation was as follows. At the V2 stage (Ritchie and Hanway (1982), “How a corn plant develops” Spec. Rep. 48. (Coop. Ext. Ser., Iowa State Univ., Ames, Iowa)), plant heights were measured and herbicides were applied by spray application. Ten to fourteen days after the spray application, the transgenic plants were evaluated for injury symptoms and measured for plant height again in order to determine plant growth rates.
Plants were then evaluated at various times after treatment, such as 10 or 14 days after treatment.

[10] = test system: control maize; assay: as above; type: in vivo; conditions: postemergence; tribenuron (Express) 200, chlorimuron (Classic) 200, imazapyr (Arsenal) 200, metsulfuron-methyl (Ally) 35 g ai/ha
Procedure: At the V2 stage (Ritchie and Hanway (1982), “How a corn plant develops” Spec. Rep. 48. (Coop. Ext. Ser., Iowa State Univ., Ames, Iowa)), plant heights were measured and herbicides were applied by spray application. Ten to fourteen days after the spray application, the transgenic plants were evaluated for injury symptoms and measured for plant height again in order to determine plant growth rates.

[11] = preemergence, 200 g/ha, 0% no injury, 100% plant death, mean of four replications
[12] = preemergence, 200 g/ha, mean of four replications
[13] = postemergence, 200 g/ha (glyphosate 3472 g ae/ha, glufosinate ammonium 1870 g/ha), 0% no injury, 100% plant death, mean of four replications
[14] = postemergence, 200 g/ha (glyphosate 3472 g ae/ha, glufosinate ammonium 1870 g/ha), mean of four replications

CCS(=O)(=O)c1cccnc1S(=O)(=O)NC(=O)Nc1nc(OC)cc(OC)n1 [Rimsulfuron]
pest or weed control at 200 g/ha [1, 11]: 74% | Fresh Weight [1, 12]: 29.8 g | pest or weed control at 200 g/ha [2, 11]: 0% | Fresh Weight [2, 12]: 45.3 g | pest or weed control at 200 g/ha [3, 13]: 91% | Fresh Weight [3, 14]: 12.6 g | pest or weed control at 200 g/ha [4, 13]: 10% | Fresh Weight [4, 14]: 99.2 g | % Visual Injury ([5]; event 59, mean): 87% | % Visual Injury ([5]; event 59 line 21): 88% | % Visual Injury ([5]; event 59 line 28): 86% | % Visual Injury ([5]; event 60, mean): 83% | % Visual Injury ([5]; event 60 line 07): 84% | % Visual Injury ([5]; event 60 line 11): 83% | % Visual Injury ([5]; event 60 line 22): 76% | % Visual Injury ([5]; event 60 line 35): 85% | % Visual Injury ([5]; event 60 line 41): 80% | % Visual Injury ([5]; event 60 line 46): 78% | % Visual Injury ([5]; event 60 line 70): 80% | % Visual Injury ([5]; event 60 line 75): 86% | % Visual Injury ([5]; event 60 line 77): 90% | % Visual Injury ([5]; event 60 line 79): 86% | % Visual Injury ([5]; event 60 line 82): 90% | % Visual Injury ([5]; event 60 line 84): 83% | % Visual Injury ([5]; event 61, mean): 82% | % Visual Injury ([5]; event 61 line 02): 80% | % Visual Injury ([5]; event 61 line 02B): 70% | % Visual Injury ([5]; event 61 line 05): 78% | % Visual Injury ([5]; event 61 line 14): 90% | % Visual Injury ([5]; event 61 line 18): 89% | % Visual Injury ([5]; event 61 line 24): 90% | % Visual Injury ([5]; event 61 line 33): 95% | % Visual Injury ([5]; event 61 line 34): 90% | % Visual Injury ([5]; event 61 line 47): 78% | % Visual Injury ([5]; event 61 line 49): 84% | % Visual Injury ([5]; event 61 line 51): 83% | % Visual Injury ([5]; event 61 line 60): 73% | % Visual Injury ([5]; event 61 line 62): 71% | % Visual Injury ([5]; event 61 line 99): 79% | % Visual Injury ([5]; event 64, mean): 73% | % Visual Injury ([5]; event 64 line 41): 73% | % Visual Injury ([5]; event 64 line 47): 73% | % Visual Injury ([6]; Wild Type line 82): 97% | % Visual Injury ([6]; Wild Type line Jack): 97% | % Visual Injury ([6]; Wild Type, mean): 97% | % Visual Injury ([7]; STS ® line 25, glyphosate 8960, tribenuron-methyl 35, rimsulfuron 35 g/ha): 97% | % Visual Injury ([7]; STS ® line 46, glyphosate 8960, tribenuron-methyl 35, rimsulfuron 35 g/ha): 97% | % Visual Injury ([7]; STS ®, mean, glyphosate 8960, tribenuron-methyl 35, rimsulfuron 35 g/ha): 97% | damage to untransformed control plants [8]: severe damage

CCOC(=O)c1ccccc1S(=O)(=O)NC(=O)Nc1nc(Cl)cc(OC)n1 [Chlorimuron-ethyl]
pest or weed control at 200 g/ha [1]: 100% | Fresh Weight [1, 12]: 9.3 g | pest or weed control at 200 g/ha [2]: 10% | Fresh Weight [2, 12]: 39.4 g | pest or weed control at 200 g/ha ([3]; […]): 93% | Fresh Weight [3, 14]: 10.1 g | pest or weed control at 200 g/ha ([4]; […]): 15% | Fresh Weight [4, 14]: 95.5 g | damage from the treatment [9]: no significant damage | damage from the treatment [10]: severely damaged or killed

CC(C)C1(C)N=C(c2ncccc2C(=O)O)NC1=O (stereo not shown) [Imazapyr]
pest or weed control at 200 g/ha [1, 11]: 99% | Fresh Weight [1, 12]: 0.3 g | pest or weed control at 200 g/ha [2, 11]: 30% | Fresh Weight [2, 12]: 44.2 g | pest or weed control at 200 g/ha [3, 13]: 100% | Fresh Weight [3, 14]: 2.3 g | pest or weed control at 200 g/ha [4, 13]: 1% | Fresh Weight [4, 14]: 97.8 g | damage from the treatment [9]: no significant damage | damage from the treatment [10]: severely damaged or killed

COC(=O)c1ccccc1S(=O)(=O)NC(=O)Nc1nc(C)nc(OC)n1 [Metsulfuron-methyl]
pest or weed control at 200 g/ha [1, 11]: 100% | Fresh Weight [1, 12]: 0.0 g | pest or weed control at 200 g/ha [2, 11]: 0% | Fresh Weight [2, 12]: 41.1 g | pest or weed control at 200 g/ha [3, 13]: 100% | Fresh Weight [3, 14]: 1.9 g | pest or weed control at 200 g/ha [4, 13]: 14% | Fresh Weight [4, 14]: 75.5 g | damage from the treatment [9]: no significant damage | damage from the treatment [10]: severely damaged or killed
